Laboratory results taken from ChEMBL document CHEMBL5532646, “Discovery of 4-(N-dithiobenzyl piperazine)-1,8-naphthalimide as a potent multi-target antitumor agent with good efficacy, limited toxicity, and low resistance” (Eur J Med Chem, 2024).
Calls of active or inactive are those of the source. The rule behind the calls is not given here.

Assays:
T-24 [1] = assay: Induction of ferroptosis in human T24 cells assessed as increase in superoxide anion level at 5 uM incubated for 24 hrs by DHE probe based analysis; type: functional, cell-based
A549 = assay: Antiproliferative activity against human A549 cells incubated for 48 hrs by MTT assay; type: functional, cell-based
T-24 [2] = assay: Induction of ferroptosis in human T24 cells assessed as increase in ROS level at 5 uM incubated for 24 hrs by DCFH-DA probe based analysis; type: functional, cell-based
[3] = Toxicity in nude mouse model xenografted with human T24 cells assessed as pathological change in heart at 15 mg/kg, ip administered once every two days for 21 days; type: organism-based, T-24; settings: in vivo, 504 h, time 21 day
T-24 [4] = assay: Induction of apoptosis in human T24 cells assessed as increase in cleaved caspase-3 level at 2 to 8 uM incubated for 24 hrs by Western blot analysis; type: functional, cell-based; settings: dose 2-8 µM
T-24 [5] = assay: Anti-migratory activity against human T24 cells incubated upto 48 hrs by wound healing assay; type: functional, cell-based
MGC-803 = assay: Antiproliferative activity against human MGC-803 cells incubated for 48 hrs by MTT assay; type: functional, cell-based; settings: MGC-803, 48 h
T-24 [6] = assay: Inhibition of cell proliferation of human T24 cells at 1 to 5 uM incubated for 7 days by colony formation assay; type: functional, cell-based; settings: dose 1-5 µM, time 7.0 day
T-24 [7] = assay: Effect on cell cycle pathway in human T24 cells at 5 uM incubated for 24 hrs by KEGG analysis; type: functional, cell-based
A549/CDDP = assay: Antiproliferative activity against human A549/DDP cells incubated for 48 hrs by MTT assay; type: functional, cell-based
T-24 [8] = assay: Induction of autophagy in human T24 cells assessed as decrease in P62 level at 2 to 8 uM incubated for 24 hrs by Western blot analysis; type: functional, cell-based; settings: dose 2-8 µM
T-24 [9] = assay: Antiproliferative activity against human T24 cells xenografted in nude mouse model assessed as tumor inhibition rate at 15 mg/kg, ip administered once every two days for 21 days relative to control; type: functional; settings: T-24, 504 h, time 21 day
T-24 [10] = assay: Anti-migratory activity against human T24 cells at 5 uM by wound healing assay; type: functional, cell-based; settings: time <= 48.0 hrs, TDE = time-dependent effect
T-24 [11] = assay: Induction of ferroptosis in human T24 cells assessed as decrease in GPX4 level at 5 uM incubated for 24 hrs by Western blot analysis; type: functional, cell-based
T-24 [12] = assay: Induction of cell cycle arrest in human T24 cells assessed as decrease in MCM5 level at 2 to 5 uM by Western blot analysis; type: functional, cell-based; settings: dose 2-5 µM
T-24 [13] = assay: Induction of cell cycle arrest at G0/G1 phase in human T24 cells at 8 uM incubated for 24 hrs by flow cytometry (reference value: 75.31 %); type: functional
T-24 [14] = assay: Downregulation of AKT1 level in human T24 cells at 2 to 8 uM incubated for 24 hrs by Western blot analysis; type: functional, cell-based; settings: dose 2-8 µM
T-24 [15] = assay: Antitumor activity against human T24 cells assessed as effect on PI3K-AKT signaling pathway at 5 uM incubated for 24 hrs by TMT/iTRAQ analysis; type: functional, cell-based
T-24 [16] = assay: Induction of ferroptosis in human T24 cells assessed as increase in iron level at 5 uM incubated for 24 hrs by FerrOrange probe based confocal microscopy; type: functional, cell-based
T-24 [17] = assay: Induction of cell cycle arrest at S phase in human T24 cells at 5 uM incubated for 24 hrs by flow cytometry (reference value: 12.39 %); type: functional
[18] = Toxicity in nude mouse model xenografted with human HepG2 cells assessed as pathological change in spleen at 15 mg/kg, ip administered once every two days for 21 days; type: organism-based; settings: in vivo, 504 h, time 21 day
T-24 [19] = assay: Induction of ferroptosis in human T24 cells assessed as increase in mitochondrial membrane density at 5 uM incubated for 24 hrs by TEM analysis; type: functional, cell-based
HepG2 [20] = assay: Antiproliferative activity against human HepG2 cells incubated for 48 hrs by MTT assay; type: functional, cell-based; settings: HepG2, 48 h
T-24 [21] = assay: Induction of ferroptosis in human T24 cells assessed as increase in iron level at 5 uM incubated for 24 hrs in presence of DFO by FerrOrange probe based confocal microscopy; type: functional, cell-based
[22] = Toxicity in nude mouse model xenografted with human HepG2 cells assessed as pathological change in lung at 15 mg/kg, ip administered once every two days for 21 days; type: organism-based; settings: in vivo, 504 h, time 21 day
T-24 [23] = assay: Induction of apoptosis in human T24 cells assessed as increase in cleaved PARP level at 2 to 8 uM incubated for 24 hrs by Western blot analysis; type: functional, cell-based; settings: dose 2-8 µM
HK-2 = assay: Antiproliferative activity against human HK-2 cells incubated for 48 hrs by MTT assay; type: functional, cell-based; settings: HK-2, 48 h
T-24 [24] = assay: Antitumor activity against human T24 cells assessed as effect on MAPK signaling pathway at 5 uM incubated for 24 hrs by TMT/iTRAQ analysis; type: functional, cell-based
T-24 [25] = assay: Induction of ferroptosis in human T24 cells assessed as smaller mitochondria at 5 uM incubated for 24 hrs by TEM analysis; type: functional, cell-based
T-24 [26] = assay: Induction of cell cycle arrest at G1/S phase in human T24 cells incubated for 24 hrs by flow cytometry; type: functional, cell-based; settings: dose 2-8 µM
T-24 [27] = assay: Downregulation of pAKT1 at S473 level in human T24 cells at 2 to 8 uM incubated for 24 hrs by Western blot analysis; type: functional, cell-based; settings: dose 2-8 µM
T-24 [28] = assay: Induction of cell cycle arrest at G2/M phase in human T24 cells at 8 uM incubated for 24 hrs by flow cytometry (reference value: 12.30 %); type: functional
T-24 [29] = assay: Downregulation of mTOR level in human T24 cells at 2 to 8 uM incubated for 24 hrs by Western blot analysis; type: functional, cell-based; settings: dose 2-8 µM
T-24 [30] = assay: Upregulation of fatty acid metabolism in human T24 cells at 5 uM incubated for 24 hrs by KEGG analysis; type: functional, cell-based
T-24 [31] = assay: Induction of ferroptosis in human T24 cells assessed as reduction in mitochondrial cristae at 5 uM incubated for 24 hrs by TEM analysis; type: functional, cell-based
HepG2 [32] = assay: Antiproliferative activity against human HepG2 cells xenografted in nude mouse model assessed as tumor inhibition rate at 15 mg/kg, ip administered once every two days for 21 days relative to control; type: functional; settings: HepG2, 504 h, time 21 day
T-24 [33] = assay: Induction of ferroptosis in human T24 cells at 5 uM incubated for 24 hrs by KEGG analysis; type: functional, cell-based
T-24 [34] = assay: Induction of ferroptosis in human T24 cells assessed as increase in FACL4 level at 5 uM incubated for 24 hrs by Western blot analysis; type: functional, cell-based
[35] = Toxicity in nude mouse model xenografted with human T24 cells assessed as pathological change in liver at 15 mg/kg, ip administered once every two days for 21 days; type: organism-based, T-24; settings: in vivo, 504 h, time 21 day
T-24 [36] = assay: Induction of cell cycle arrest at G2/M phase in human T24 cells at 2 uM incubated for 24 hrs by flow cytometry (reference value: 12.30 %); type: functional
T-24 [37] = assay: Induction of autophagy in human T24 cells assessed as increase in LC-3 level at 2 to 8 uM incubated for 24 hrs by Western blot analysis; type: functional, cell-based; settings: dose 2-8 µM
T-24 [38] = assay: Antitumor activity against human T24 cells assessed as effect on ferroptosis signaling pathway at 5 uM incubated for 24 hrs by TMT/iTRAQ analysis; type: functional, cell-based
[39] = Toxicity in nude mouse model xenografted with human HepG2 cells assessed as pathological change in heart at 15 mg/kg, ip administered once every two days for 21 days; type: organism-based; settings: in vivo, 504 h, time 21 day

IC50 (MGC-803): 5.23 µM | IC50 (HepG2 [20]): 3.6 µM
Compound: CN(C)CCN1C(=O)c2cccc3c(N4CCN(C(=S)SCc5ccccc5)CC4)ccc(c23)C1=O
Activity (T-24 [1]): Active | Activity (A549): Active | Activity (T-24 [2]): Active | Activity [3]: Non-Toxic | Activity (T-24 [4]): Active | Activity (T-24 [5]): Dose-Dependent Effect | inhibition (T-24 [6]): Active | Activity (T-24 [7]): Active | Activity (A549/CDDP): Active | Activity (T-24 [8]): Active | inhibition in vivo at 15 mg/kg (T-24 [9]): 56.3% | Activity (T-24 [10]): Tde | Activity (T-24 [11]): Active | Activity (T-24 [12]): Active | Activity (T-24 [13]): 70.18% | Activity (T-24 [14]): Active | Activity (T-24 [15]): Active | Activity (T-24 [16]): Active | Activity (T-24 [17]): 30.58% | Activity [18]: Non-Toxic | Activity (T-24 [19]): Active | Activity (T-24 [21]): inactive | Activity [22]: Non-Toxic | Activity (T-24 [23]): Active | IC50 (HK-2): 14.9 µM | Activity (T-24 [24]): Active | Activity (T-24 [25]): Active | Activity (T-24 [26]): Dose-Dependent Effect | Activity (T-24 [27]): Active | Activity (T-24 [28]): 16.61% | Activity (T-24 [29]): Active | Activity (T-24 [30]): Active | Activity (T-24 [31]): Active | inhibition in vivo at 15 mg/kg (HepG2 [32]): 50% | Activity (T-24 [33]): Active | Activity (T-24 [34]): Active | Activity [35]: Non-Toxic | Activity (T-24 [36]): 20.7% | Activity (T-24 [37]): Active | Activity (T-24 [38]): Active | Activity [39]: Non-Toxic
